Consider six molecules from publication PMC8399847, “Hybrid Quinolinyl Phosphonates as Heterocyclic Carboxylate Isosteres: Synthesis and Biological Evaluation against Topoisomerase 1B (TOP1B)” (Pharmaceuticals, 2021).

The subject of assay [1] is L. infantum promastigotes. Nature of the assay: In vitro iRFP-L. infantum promastigotes viability assay. The note with it: Leishmania infantum; 96 h exposure, EC50 ± SD. It is filed as cell-based. As to the method: The effect of the new quinolinylphosphonate derivatives 7 synthesized was assessed on both free-living promastigotes and intramacrophage amastigotes of L. infantum as it is described in experimental protocols. Primary cultures of intramacrophage amastigotes were obtained from splenic explants from 6-weeks infected Balb/c mice with L. infantum-iRFP promastigotes. The infrared fluorescence emitted by both stage forms of the parasite was used as viability criterium, using 0.5% DMSO as negative control (100% viability) and […] AMB as a positive control (0% viability).
A genetically modified strain of L infantum BCN 150, expressing iRFP protein from Rhodopseudomonas palustris bacteriophytochrome (iRFP-L. infantum), was used to obtain the EC50 values of the different compounds against promastigotes, through the detection of the near-infrared radiation emitted by living parasites exposed to tested molecules. Thus, the viability of promastigotes was calculated after recording their fluorescence at 708 nm in an Odyssey (Li-Cor, NE, USA) infrared imaging.
iRFP-L. infantum promastigotes were cultured using M199 medium (Gibco, Thermo Fisher Scientific, MA, USA), supplemented with 25 mM 4-(2-hydroxyethyl)-1-piperazineethanesulfonic acid (HEPES) pH 6.9, […] hemin, 10 mM glutamine, 0.1 mM adenosine, 0.01 mM folic acid, 1× RPMI 1640 vitamin mix (Sigma, Darmstadt, Germany), 10% (v/v) heat-inactivated foetal bovine serum (Gibco, Thermo Fisher Scientific, MA, USA), 50 U/mL penicillin and 50 µg/mL streptomycin. The assay was carried out, seeding 1 × 10^6 cells/mL of iRFP-L. infantum promastigotes into 96-well optical bottom black plates (Thermo Scientific, MA, USA) along with different concentrations of compound to each well. The final concentration of DMSO, the solvent used to prepare the stock solutions of compounds, was never higher than 0.1%. All of the compounds’ concentrations and controls were assayed by triplicate.

Assay [2] has as its system leishmanial TOP1B (LTOP1B). Nature of the assay: LTOP1B relaxation activity assay. It is filed as biochemical, Leishmania. Particulars: 100 µM of compound, 1 min. As to the method:
The inhibition of relaxation activity of LTOP1B by the compounds was tested at 100 µM. The reactions were performed for 1 min in the way described in the experimental protocols section. The percentage of inhibition was calculated by measuring the intensity of the band corresponding to the supercoiled DNA when the different DNA topoisomers were separated in an agarose gel.
Purification of leishmanial DNA topoisomerase 1B (LTOP1B) was carried out as reported previously. Shortly, LTOP1B was purified using the deficient in TOP1 activity yeast strain, EKY3 MAT α ura3–52 his3Δ20ting, from the union of the bicistronic expression vector pESC-URA to both subunits of LTOP1B. The yeast cells were grown in a yeast synthetic drop-out medium without uracil (Sigma) supplemented with 2% raffinose (w/v) to OD600: 0.8–1 and induced for 10 h with 2% galactose (w/v). After that, the cells were harvested, washed with cold TEEG buffer (50 mM Tris–HCl pH 7.4, 1 mM EDTA, 1 mM EGTA, 10% glycerol), resuspended in 15 mL of 1× TEEG buffer supplemented with 0.2 M KCl and a protease inhibitors cocktail (Thermo Scientific, Waltham, MA, USA) and lysed. Protein extract obtained was loaded on a 5 mL Heparin Sepharose column (GE Healthcare, MA, USA). LTOP1B enzyme was eluted at 4 °C with a discontinuous gradient of KCl (0.2, 0.4, 0.6 M) in TEEG buffer.
Leishmanial TOP1B activity was tested by the relaxation of supercoiled plasmid DNA assay. Each reaction contained: one unit of purified LTOP1B enzyme, 100 µM of each compound, 0.5 μg of supercoiled pSK DNA, 10 mM Tris-HCl buffer pH 7.5, 5 mM MgCl2, 0.1 mM EDTA, 15 µg/mL bovine serum albumin, and 150 mM KCl. The final volume of each reaction was 20 µL. Reaction mixtures were incubated for 1 min at 37 °C and stopped by the addition of a 4 µL loading buffer (5% sarkosyl, 0.12% bromophenol blue, 25% glycerol). The DNA topoisomers were resolved in 1% agarose gels by electrophoresis in 0.1 M Tris borate EDTA buffer (pH 8.0) at 2 V/cm for 16 h and visualized with UV illumination after ethidium bromide (0.5 μg/mL) staining. The percentage of inhibition was calculated by measuring the intensity of the band corresponding to the supercoiled DNA after separating and staining the different DNA topoisomers. This analysis was performed using the GeneTools from Syngene software (Version 4.3.8, MD, USA).

Assay [3] relates to HEK293 (human embryonic kidney). Nature of the assay: CCK-8 cytotoxicity assay, HEK293. It is filed as cell-based. The note with it: HEK293, 48 h, CCK-8, 50% growth inhibition. On the procedure:
(§1) The cytotoxicity of the newly synthesized quinolinylphosphonates 7 was evaluated in vitro by testing their antiproliferative activities against several human cancer cell lines: A549 (human lung adenocarcinoma cells), SKOV3 (human ovarian carcinoma), and HEK293 (human embryonic kidney). In order to analyze the selective cytotoxicity facing exclusively cancerous cell lines, cytotoxicity against non-cancerous cell lines (MRC-5, lung fibroblast cells) was also evaluated. Cell counting kit (CCK-8) assay was employed to assess growth inhibition and, cell proliferation inhibitory activities of compounds that are listed in Table 1 as IC50 values. […] According to the data presented in Table 1, in general, all these phosphorated derivatives present higher selective cytotoxicity in the A549 cell line than in the other two cell lines, SKOV3 and HEK293, although slight differences are observed compared to human ovarian carcinoma (SKOV3).
(§2) Cells were cultured according to the supplier’s instructions, A549 (ATCC® CCL-185), SKOV3 (ATCC® HTB-77), HEK293 (CLS GmbH), MRC-5 (ATCC® CCL-171™). Cells were seeded in 96-well plates at a density of 2–2.5 × 10^3 cells per well and incubated overnight in 0.1 mL of media supplied with 10% Fetal Bovine Serum (Lonza, Basel, Switzerland) in a 5% CO2 incubator at 37 °C. On day 2, drugs (concentration between 0.5–50 μM) were added and samples were incubated for 48 h. After treatment, 10 μL of cell counting kit-8 was added to each well for an additional 2 h incubation at 37 °C. The absorbance of each well was determined by an Automatic Elisa Reader System at 450 nm wavelength. CPT was purchased from Sigma-Aldrich and used as a positive control.

The subject of assay [4] is A549 (human lung adenocarcinoma cells). Nature of the assay: CCK-8 cytotoxicity assay, A549. It is filed as cell-based. The note with it: A549, 48 h, read-out: Cytotoxicity IC50 Lung A549. As to the method:
as §1, §2

Molecule `CCOP(=O)(OCC)c1ccc2nc(-c3ccc(F)cc3)cc(-c3ccccc3)c2c1` [7r, Diethyl (2-(4-fluorophenyl)-4-phenylquinolin-6-yl)phosphonate] gave an EC50 in assay [1] of 15.2 ± 1.14 µM. Besides, the “LTOP1B Inhibition” value in assay [2] stood at 1.94%. For the same molecule, the IC50 in assay [3] stood at 36.9 ± 8.06 µM; in assay [4], 2.8 ± 1.24 µM.
For `CCOP(=O)(OCC)c1ccc2nc(-c3ccc(F)c(F)c3)cc(-c3ccccc3)c2c1` [7s, Diethyl (2-(3,4-difluorophenyl)-4-phenylquinolin-6-yl)phosphonate], in that order: 14.7 ± 1.78 µM, 14.56%, 19.2 ± 1.13 µM and 6.19 ± 0.67 µM.
For `CCOP(=O)(OCC)c1ccc2nc(-c3ccc(F)cc3)cc(-c3ccc(F)cc3)c2c1` [7t, Diethyl (2,4-bis(4-fluorophenyl)quinolin-6-yl)phosphonate], in that order: 16.7 ± 0.72 µM, 37.86%, more than 50 µM and 2.85 ± 1.26 µM.
For `CCOP(=O)(OCC)c1ccc2nc(-c3ccc(F)c(F)c3)cc(-c3ccc(F)cc3)c2c1` [7u, Diethyl (2-(3,4-difluorophenyl)-4-(4-fluorophenyl)quinolin-6-yl)phosphonate], in that order: 7.07 ± 0.61 µM, 50.24%, more than 50 µM and 4.33 ± 1.11 µM.
Consider `CCOP(=O)(OCC)c1ccc2nc(-c3ccc(F)cc3)cc(-c3ccc(C)cc3)c2c1` [7v, Diethyl (2-(4-fluorophenyl)-4-(p-tolyl)quinolin-6-yl)phosphonate], for which the response in assay [1] was half-maximal at 7.02 ± 0.94 µM (EC50). In assay [2], the “LTOP1B Inhibition” value is given as 43.25%. In addition, the IC50 in assay [3] was more than 50 µM; in assay [4] it was 0.84 ± 0.23 µM.
For `CCOP(=O)(OCC)c1ccc2nc(-c3ccc(F)c(F)c3)cc(-c3ccc(C)cc3)c2c1` [7x, Diethyl (2-(3,4-difluorophenyl)-4-(p-tolyl)quinolin-6-yl)phosphonate], in that order: 21.3 ± 2.34 µM, 43.84%, more than 50 µM and 3.05 ± 0.86 µM.
